Test results from ChEMBL document CHEMBL3886524, “Heteroaryl pyridone and aza-pyridone compounds with electrophilic functionality” (2016).

Molecular target: Tyrosine-protein kinase BTK (Homo sapiens, UniProt Q06187)
Experiment: Biochemical Btk Assay: A generalized procedure for a standard biochemical Btk, Kinase Assay that can be used to test Formula I compounds is as follows. A master mix minus Btk enzyme is prepared containing 1x Cell Signaling kinase buffer (25 mM Tris-HCl, pH 7.5, 5 mM beta-glycerophosphate, 2 mM dithiothreitol, 0.1 mM Na3VO4, 10 mM MgCl2), 0.5 uM Promega PTK Biotinylated peptide substrate 2, and 0.01% BSA. A master mix plus Btk enzyme is prepared containing 1x Cell Signaling kinase buffer, 0.5 uM PTK Biotinylated peptide substrate 2, 0.01% BSA, and 100 ng/well (0.06 mU/well) Btk enzyme. Btk enzyme is prepared as follows: full length human wildtype Btk (accession number NM-000061) with a C-terminal V5 and 6xHis tag was subcloned into pFastBac vector (Invitrogen/Life Technologies) for making baculovirus carrying this epitope-tagged Btk.

Chain of Tyrosine-protein kinase BTK (Q06187 whole entry): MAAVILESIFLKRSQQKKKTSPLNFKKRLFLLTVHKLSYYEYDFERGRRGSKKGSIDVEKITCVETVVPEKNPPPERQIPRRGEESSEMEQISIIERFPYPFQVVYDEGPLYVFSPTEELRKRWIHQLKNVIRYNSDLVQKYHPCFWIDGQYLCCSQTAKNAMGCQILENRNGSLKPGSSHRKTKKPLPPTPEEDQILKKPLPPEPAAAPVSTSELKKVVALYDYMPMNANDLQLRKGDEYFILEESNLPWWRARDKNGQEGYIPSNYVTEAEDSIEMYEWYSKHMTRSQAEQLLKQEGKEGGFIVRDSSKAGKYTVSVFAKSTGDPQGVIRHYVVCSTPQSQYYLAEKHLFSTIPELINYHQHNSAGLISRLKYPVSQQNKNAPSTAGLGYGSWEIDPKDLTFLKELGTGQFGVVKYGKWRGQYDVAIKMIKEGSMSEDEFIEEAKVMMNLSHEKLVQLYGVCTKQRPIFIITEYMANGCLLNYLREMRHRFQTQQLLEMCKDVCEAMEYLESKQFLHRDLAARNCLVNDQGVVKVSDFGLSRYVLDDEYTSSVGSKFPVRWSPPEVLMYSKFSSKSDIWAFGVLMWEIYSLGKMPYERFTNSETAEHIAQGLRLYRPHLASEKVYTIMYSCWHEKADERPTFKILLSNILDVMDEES

| SMILES | Ki |
| --- | --- |
| C=CC(=O)NCCN(C)c1cccc(Nc2cc(-c3ccnc(N4CCn5c(cc6c5CC(C)(C)C6)C4=O)c3CO)cn(C)c2=O)n1 | 0.683 nM |
| CC#CC(=O)NCCOc1cccc(Nc2cc(-c3ccnc(N4CCn5c(cc6c5CC(C)(C)C6)C4=O)c3CO)cn(C)c2=O)n1 | 2.37 nM |
| C=C(C#N)C(=O)NCCOc1cccc(Nc2cc(-c3ccnc(N4CCn5c(cc6c5CC(C)(C)C6)C4=O)c3CO)cn(C)c2=O)n1 | 1.7 nM |
| C=CC(=O)NCCNc1cccc(Nc2cc(-c3ccnc(N4CCn5c(cc6c5CC(C)(C)C6)C4=O)c3CO)cn(C)c2=O)n1 | 4.33 nM |
| C=CC(=O)N[C@H]1CCCN(c2cccc(Nc3cc(-c4ccnc(N5CCn6c(cc7c6CC(C)(C)C7)C5=O)c4CO)cn(C)c3=O)n2)C1 | 0.888 nM |
